Test results as given in patent US7785828B1 (priority 2003, dated 2010).
Like-named read-outs stand apart in the source and are kept apart here.

Columns and labels:
Type in all cases: cell-based
[1] = system: Fusarium graminearum
[2] = system: Septoria tritici
[3] = system: Mycosphaerella fijiensis
[4] = system: Fusarium graminearum; parameters: key: + indicates a 1- to 5-fold improvement in activity compared to a reference defensin protein; ++ indicates a >5- to 10-fold improvement; +++ indicates a >10-fold improvement; “0” indicates no activity detected
[5] = Table 2B (Dm-AMP1 based libraries), improvement compared to reference defensin protein (Rs-AFP2 for Table 2B [sic])

Sequence: DGVKLCEKASQTWSGHCGNTKHCDNQCKNWEGAKHGACHKRNGKWKCFCYFNC [L7-350] (Defensin like)
- Antifungal activity, Fusarium graminearum (improvement compared to DmAMP1) [1]: + (key: + indicating 1- to 5-fold improvement compared to DmAMP1; ++ indicating >5- to 10-fold improvement; +++ indicating >10-fold improvement)
- Antifungal activity, Septoria tritici (improvement compared to DmAMP1) [2]: + (key: + indicating 1- to 5-fold improvement compared to DmAMP1; ++ indicating >5- to 10-fold improvement; +++ indicating >10-fold improvement)
- Antifungal activity, Mycosphaerella fijiensis (improvement compared to DmAMP1) [3]: + (key: + indicating 1- to 5-fold improvement compared to DmAMP1; ++ indicating >5- to 10-fold improvement; +++ indicating >10-fold improvement)

Sequence: DGVKLCEKASQTWSGHCGNTKHCDNQCKNWEGAKHGACHKRNGKWKCFCYFNC [L7-434] (Defensin like)
- Antifungal activity, Fusarium graminearum (improvement compared to DmAMP1) [1]: +++ (key: + indicating 1- to 5-fold improvement compared to DmAMP1; ++ indicating >5- to 10-fold improvement; +++ indicating >10-fold improvement)
- Antifungal activity, Septoria tritici (improvement compared to DmAMP1) [2]: + (key: + indicating 1- to 5-fold improvement compared to DmAMP1; ++ indicating >5- to 10-fold improvement; +++ indicating >10-fold improvement)
- Antifungal activity, Mycosphaerella fijiensis (improvement compared to DmAMP1) [3]: + (key: + indicating 1- to 5-fold improvement compared to DmAMP1; ++ indicating >5- to 10-fold improvement; +++ indicating >10-fold improvement)

Sequence: DGVKLCEKASQTWSGHCGNTKHCDNQCKNWEGAKHGACHKRSGKWKCFCYFNC (Defensin like) [L7-422]
- Antifungal activity, Fusarium graminearum (improvement compared to DmAMP1) [1]: + (key: + indicating 1- to 5-fold improvement compared to DmAMP1; ++ indicating >5- to 10-fold improvement; +++ indicating >10-fold improvement)
- Antifungal activity, Septoria tritici (improvement compared to DmAMP1) [2]: + (key: + indicating 1- to 5-fold improvement compared to DmAMP1; ++ indicating >5- to 10-fold improvement; +++ indicating >10-fold improvement)
- Antifungal activity, Mycosphaerella fijiensis (improvement compared to DmAMP1) [3]: + (key: + indicating 1- to 5-fold improvement compared to DmAMP1; ++ indicating >5- to 10-fold improvement; +++ indicating >10-fold improvement)

Sequence: DGVKLCEKASQTWSGNCGNTKHCDTQCRNWEGAKHGACHKRNGKWKCFCYFNC (Defensin like) [L7-174]
- Antifungal activity, Fusarium graminearum (improvement compared to DmAMP1) [1]: +++ (key: + indicating 1- to 5-fold improvement compared to DmAMP1; ++ indicating >5- to 10-fold improvement; +++ indicating >10-fold improvement)
- Antifungal activity, Septoria tritici (improvement compared to DmAMP1) [2]: ++ (key: + indicating 1- to 5-fold improvement compared to DmAMP1; ++ indicating >5- to 10-fold improvement; +++ indicating >10-fold improvement)
- Antifungal activity, Mycosphaerella fijiensis (improvement compared to DmAMP1) [3]: + (key: + indicating 1- to 5-fold improvement compared to DmAMP1; ++ indicating >5- to 10-fold improvement; +++ indicating >10-fold improvement)

Sequence: DGVKLCERASQTWTGHCGNTKHCDNQCRSWEGAAHGACHKRSGKWKCFCYFNC (Defensin like) [L7-82]
- Antifungal activity, Fusarium graminearum (improvement compared to DmAMP1) [1]: ++ (key: + indicating 1- to 5-fold improvement compared to DmAMP1; ++ indicating >5- to 10-fold improvement; +++ indicating >10-fold improvement)
- Antifungal activity, Septoria tritici (improvement compared to DmAMP1) [2]: + (key: + indicating 1- to 5-fold improvement compared to DmAMP1; ++ indicating >5- to 10-fold improvement; +++ indicating >10-fold improvement)
- Antifungal activity, Mycosphaerella fijiensis (improvement compared to DmAMP1) [3]: +++ (key: + indicating 1- to 5-fold improvement compared to DmAMP1; ++ indicating >5- to 10-fold improvement; +++ indicating >10-fold improvement)

Sequence: DGVKLCERPSKTWSGHCGNTKHCDKQCRSWEGAAHGACHVRNGKWKCFCYFNC (Defensin like) [L7-94]
- Antifungal activity, Fusarium graminearum (improvement compared to DmAMP1) [1]: ++ (key: + indicating 1- to 5-fold improvement compared to DmAMP1; ++ indicating >5- to 10-fold improvement; +++ indicating >10-fold improvement)
- Antifungal activity, Septoria tritici (improvement compared to DmAMP1) [2]: + (key: + indicating 1- to 5-fold improvement compared to DmAMP1; ++ indicating >5- to 10-fold improvement; +++ indicating >10-fold improvement)
- Antifungal activity, Mycosphaerella fijiensis (improvement compared to DmAMP1) [3]: + (key: + indicating 1- to 5-fold improvement compared to DmAMP1; ++ indicating >5- to 10-fold improvement; +++ indicating >10-fold improvement)

Sequence: DGVKLCERPSKTWSGNCGNTKHCDKQCKNWEKAKHGACHVRNGKWKCFCYFNC (Defensin like) [L7-112]
- Antifungal activity, Fusarium graminearum (improvement compared to DmAMP1) [1]: + (key: + indicating 1- to 5-fold improvement compared to DmAMP1; ++ indicating >5- to 10-fold improvement; +++ indicating >10-fold improvement)
- Antifungal activity, Septoria tritici (improvement compared to DmAMP1) [2]: + (key: + indicating 1- to 5-fold improvement compared to DmAMP1; ++ indicating >5- to 10-fold improvement; +++ indicating >10-fold improvement)
- Antifungal activity, Mycosphaerella fijiensis (improvement compared to DmAMP1) [3]: + (key: + indicating 1- to 5-fold improvement compared to DmAMP1; ++ indicating >5- to 10-fold improvement; +++ indicating >10-fold improvement)

Sequence: NLCERASKTWSGNCGNTKHCDNQCRNWEGAAHGACHVRNGKHKCFCYFNC (Defensin like) [L6-59]
- Antifungal activity, Septoria tritici (improvement compared to DmAMP1) [2]: + (key: + indicating 1- to 5-fold improvement compared to DmAMP1; ++ indicating >5- to 10-fold improvement; +++ indicating >10-fold improvement)
- Antifungal activity, Mycosphaerella fijiensis (improvement compared to DmAMP1) [3]: + (key: + indicating 1- to 5-fold improvement compared to DmAMP1; ++ indicating >5- to 10-fold improvement; +++ indicating >10-fold improvement)

Sequence: NLCERASKTWTGNCGNTKHCDNQCRNWEGAKHGACHVRSGKWKCFCYFNC (Defensin like) [L10-79]
- Activity (1): antifungal activity of the NP against Fusarium graminearium [4, 5]: ++ (++ indicates a >5- to 10-fold improvement)

Sequence: NLCERASKTWTGNCGNTKHCDNQCRNWESAAHGACHKRSGKWKCFCYFNC (Defensin like) [L3-98]
- Activity (1): antifungal activity of the NP against Fusarium graminearium [4, 5]: ++ (++ indicates a >5- to 10-fold improvement)

Sequence: NLCERASKTWTGNCGNTKHCDNQCRSWEGAKHGACHKRSGKWKCFCYFNC (Defensin like) [L10-77]
- Activity (1): antifungal activity of the NP against Fusarium graminearium [4, 5]: ++ (++ indicates a >5- to 10-fold improvement)

Sequence: NLCERASKTWTGNCGNTKHCDTKCRSWESAKHGACHKRNGKWKCFCYFNC (Defensin like) [L3-46]
- Activity (1): antifungal activity of the NP against Fusarium graminearium [4, 5]: ++ (++ indicates a >5- to 10-fold improvement)

Sequence: NLCERASKTWTGNCGNTKHCDTQCKIWEGAKHGACHKRSGKWKCFCYFNC (Defensin like) [L3-77]
- Activity (1): antifungal activity of the NP against Fusarium graminearium [4, 5]: ++ (++ indicates a >5- to 10-fold improvement)

Sequence: NLCERASKTWTGNCGNTKHCDTQCKNWEGAKHGACHVRNGKWKCFCYFNC (Defensin like) [L6-77]
- Activity (1): antifungal activity of the NP against Fusarium graminearium [4, 5]: ++ (++ indicates a >5- to 10-fold improvement)

Sequence: NLCERASKTWTGNCGNTKHCDTQCKNWESAKHGACHVRSGKHKCFCYFNC (Defensin like) [L3-28]
- Activity (1): antifungal activity of the NP against Fusarium graminearium [4, 5]: ++ (++ indicates a >5- to 10-fold improvement)

Sequence: NLCERASKTWTGNCGNTKHCDTQCKSWEGAKHGACHKRSGKWKCFCYFNC (Defensin like) [L5-21]
- Activity (1): antifungal activity of the NP against Fusarium graminearium [4, 5]: + (+ indicates a 1- to 5-fold improvement in activity compared to a reference defensin protein)

Sequence: NLCERASKTWTGNCGNTKHCDTQCKSWEGAKHGACHVRNGKWKCFCYFNC (Defensin like) [L6-52]
- Activity (1): antifungal activity of the NP against Fusarium graminearium [4, 5]: + (+ indicates a 1- to 5-fold improvement in activity compared to a reference defensin protein)

Sequence: NLCERASKTWTGNCGNTKHCDTQCKSWEGAKHGACHVRSGKHKCFCYFNC (Defensin like) [L5-36]
- Activity (1): antifungal activity of the NP against Fusarium graminearium [4, 5]: + (+ indicates a 1- to 5-fold improvement in activity compared to a reference defensin protein)

Sequence: NLCERASKTWTGNCGNTKHCDTQCRNWEGAKHGACHKRSGKWKCFCYFNC (Defensin like) [L6-33]
- Activity (1): antifungal activity of the NP against Fusarium graminearium [4, 5]: ++ (++ indicates a >5- to 10-fold improvement)

Sequence: NLCERASKTWTGNCGNTKHCDTQCRNWEGAKHGACHVRNGKWKCFCYFNC (Defensin like) [L5-46]
- Activity (1): antifungal activity of the NP against Fusarium graminearium [4, 5]: + (+ indicates a 1- to 5-fold improvement in activity compared to a reference defensin protein)

Sequence: NLCERASKTWTGNCGNTKHCDTQCRNWEGARHGACHVRNGKWKCFCYFNC (Defensin like) [L10-71]
- Activity (1): antifungal activity of the NP against Fusarium graminearium [4, 5]: ++ (++ indicates a >5- to 10-fold improvement)

Sequence: NLCERASKTWTGNCGNTKHCDTQCRSWEGAKHGACHKRNGKWKCFCYFNC (Defensin like) [L10-14]
- Activity (1): antifungal activity of the NP against Fusarium graminearium [4, 5]: ++ (++ indicates a >5- to 10-fold improvement)

Sequence: NLCERASKTWTGNCGNTKHCDTQCRSWEGAKHGACHVRNGKHKCFCYFNC (Defensin like) [L6-42]
- Activity (1): antifungal activity of the NP against Fusarium graminearium [4, 5]: + (+ indicates a 1- to 5-fold improvement in activity compared to a reference defensin protein)

Sequence: NLCERASKTWTGNCGNTKHCDTQCRSWEGAKHGACHVRNGKWKCFCYFNC (Defensin like) [L6-62]
- Activity (1): antifungal activity of the NP against Fusarium graminearium [4, 5]: + (+ indicates a 1- to 5-fold improvement in activity compared to a reference defensin protein)

Sequence: NLCERASKTWTGNCGNTKHCDTQCRSWEGAKHGACHVRSGKHKCFCYFNC (Defensin like) [L5-32]
- Activity (1): antifungal activity of the NP against Fusarium graminearium [4, 5]: + (+ indicates a 1- to 5-fold improvement in activity compared to a reference defensin protein)

Sequence: NLCERASLTWTGNCGNTKHCDTQCKNWEGAKHGACHVRNGKWKCFCYFNC (Defensin like) [L3-02]
- Activity (1): antifungal activity of the NP against Fusarium graminearium [4, 5]: ++ (++ indicates a >5- to 10-fold improvement)

Sequence: NLWEKASLTWTGNCGNTKHCDNQCKNWESAAHGACHKRSGKWMCFCYFNC (Defensin like) [L4-1]
- Activity (1): antifungal activity of the NP against Fusarium graminearium [4, 5]: + (+ indicates a 1- to 5-fold improvement in activity compared to a reference defensin protein)

Sequence: QKLCERPSGTWSGVCMNSNACKNQCIRLEGARHGSCNYVFPAHKCICYFPC (Defensin like) [L2-53]
- Activity (1): antifungal activity of the NP against Fusarium graminearium [4]: 0
